Experimental data: publication PMC7582905, “Effect of Disulfide Cyclization of Ultrashort Cationic Lipopeptides on Antimicrobial Activity and Cytotoxicity” (International Journal of Molecular Sciences, 2020)
In brackets after ≈: the same amount, converted by molar mass. Where a SMILES comes first, the peptide text is derived from it. Bridges are numbered along the chain shown (N, C = ends). The star is where a group is joined. Palmitoyl = CCCCCCCCCCCCCCCC(=O)*

Experiments:
Format in all cases: cell-based
[1] = tested on: Escherichia coli ATCC 25922; settings: ATCC 25922, 18 h
Experimental: (§1) The Staphylococcus aureus ATCC 25923, Staphylococcus epidermidis ATCC 14990, Escherichia coli ATCC 25922, Pseudomonas aeruginosa ATCC 9027, Candida albicans ATCC 10231, Candida glabrata ATCC 15126, Candida lipolytica PCM 2680-FY, and Candida tropicalis PCM 2709-FY strains were acquired from the Polish Collection of Microorganisms (PCM, Polish Academy of Sciences, Wrocław, Poland) and from the American Type Culture Collection (ATCC). All the strains were stored at −80 °C in Roti-Store cryo vials and before the tests were transferred into fresh Mueller–Hinton broth (MHB, Biocorp, Warsaw, Poland) for bacteria or RPMI-1640 (Sigma-Aldrich, Steinheim, Germany) for fungi and incubated for 24 h at 37 °C. Then, the cultures were seeded on Mueller–Hinton agar (BioMaxima, Lublin, Poland) or Sabouraud dextrose agar (SDA, BioMaxima, Lublin, Poland) plates, respectively, and incubated as just mentioned. These agar cultures were used for further microbiological assays. Cell densities for all assays were adjusted spectrophotometrically (Multiskan GO Microplate Spectrophotometer, Thermo Fisher Scientific, Vantaa, Finland) at 600 and 660 nm for bacteria and fungi, respectively.
(§2) The MICs were determined by broth microdilution method according to the Clinical and Laboratory Standard Institute guidelines For this purpose, initial inoculums of bacteria (5 × 10^5 CFU/mL) in MHB and yeasts (2 × 10^3 CFU/mL) in RPMI-1640 with 2% D-glucose were exposed to the ranging concentration of lipopeptides (0.5–256 μg/mL) and incubated at 37 °C for 18 h and 24 h, respectively. The experiments were conducted on 96-well microtiter polystyrene plates. The growth was assessed visually after incubation and the MIC was assumed as the lowest peptide concentration at which a noticeable growth of microorganisms was inhibited. All experiments were conducted in triplicate.

[2] = tested on: Candida lipolytica PCM 2680-FY; settings: 24 h
Experimental: as §1, §2

[3] = tested on: Pseudomonas aeruginosa ATCC 9027; settings: ATCC 9027, 18 h
Experimental: as §1, §2

[4] = tested on: Candida tropicalis PCM 2709-FY; settings: PCM 2709-FY, 24 h
Experimental: as §1, §2

[5] = tested on: Candida glabrata ATCC 15126; settings: ATCC 15126, 24 h
Experimental: as §1, §2

[6] = tested on: Candida albicans ATCC 10231; settings: ATCC 10231, 24 h
Experimental: as §1, §2

[7] = tested on: Staphylococcus epidermidis ATCC 14990; settings: ATCC 14990, 18 h
Experimental: as §1, §2

[8] = tested on: Escherichia coli ATCC 25922; settings: ATCC 25922, 24 h
Experimental: as §1
(§3) MBECs were determined on 96-well polystyrene flat-bottom plates. For this purpose, 24 h cultures of microorganisms were diluted to obtain final density 5.0 × 10^5 CFU/mL and 2.0 × 10^5 CFU/mL of bacteria and fungi, respectively. Briefly, 100 µL of cell suspension was added into the test plates. After 24 h of incubation at 37 °C the wells were rinsed three times with a phosphate buffer saline (PBS, pH 7.4) to remove non-adherent cells. Subsequently, 100 μL of the test compounds in concentration range (0.5–256 μg/mL) were added to each well. After 24 h of incubation at 37 °C, 20 μL of a cell viability reagent was added (resazurin, 4 g/L; Sigma Aldrich, St. Louis, MO, USA). The MBEC was read after 1 h. The determined values were recorded as the lowest concentration at which the reduction of resazurin (from blue to pink) was lower or equal to 10 ± 0.5% as compared to the positive (100%) and negative (0%) controls. The reduction was monitored by measuring absorbance at 570 nm (reduced) and 600 nm (oxidized) using a microplate spectrophotometer (Multiskan GO Microplate Spectrophotometer, Thermo Fisher Scientific, Vantaa, Finland). All experiments were conducted in triplicate.

[9] = tested on: Candida lipolytica PCM 2680-FY; settings: 24 h; remark: listed apart in the source
Experimental: as §1, §3

[10] = tested on: Pseudomonas aeruginosa ATCC 9027; settings: ATCC 9027, 24 h
Experimental: as §1, §3

[11] = tested on: Candida tropicalis PCM 2709-FY; settings: PCM 2709-FY, 24 h; remark: listed apart in the source
Experimental: as §1, §3

[12] = tested on: Candida glabrata ATCC 15126; settings: ATCC 15126, 24 h; remark: listed apart in the source
Experimental: as §1, §3

[13] = tested on: Candida albicans ATCC 10231; settings: ATCC 10231, 24 h; remark: listed apart in the source
Experimental: as §1, §3

[14] = tested on: Staphylococcus epidermidis ATCC 14990; settings: ATCC 14990, 24 h
Experimental: as §1, §3

Compound	MIC E. coli [1] [µg/mL]	MIC C. lipolytica [2] [µg/mL]	MIC P. aeruginosa [3] [µg/mL]	MIC C. tropicalis [4] [µg/mL]	MIC C. glabrata [5] [µg/mL]	MIC C. albicans [6] [µg/mL]	MIC S. epidermidis [7] [µg/mL]	MBEC E. coli [8] [µg/mL]	MBEC C. lipolytica [9] [µg/mL]	MBEC P. aeruginosa [10] [µg/mL]	MBEC C. tropicalis [11] [µg/mL]	MBEC C. glabrata [12] [µg/mL]	MBEC C. albicans [13] [µg/mL]	MBEC S. epidermidis [14] [µg/mL]
CCCCCCCCCCCCCCCC(=O)N[C@@H](CCCCN)C(=O)N[C@@H](CCCNC(=N)N)C(=O)N[C@@H](CCCCN)C(=O)N[C@@H](CCCCN)C(N)=O [L4, C16-KRKK-NH2] (Palmitoyl-KRKK-NH2)	8 (≈ 10 µM)	1 (≈ 1.26 µM)	32 (≈ 40.2 µM)	2 (≈ 2.51 µM)	32 (≈ 40.2 µM)	16 (≈ 20.1 µM)	8 (≈ 10 µM)	64	32	>256	64	128	128	32
CCCCCCCCCCCCCCCC(=O)N[C@H]1CSSC[C@@H](C(N)=O)NC(=O)[C@H](CCCCN)NC(=O)[C@H](CCCNC(=N)N)NC(=O)[C@H](CCCCN)NC(=O)[C@H](CCCCN)NC1=O [C5, C16-CKKRKC-NH2] (Palmitoyl-CKKRKC-NH2; disulfide 1-6)	16 (≈ 16 µM)	4 (≈ 4 µM)	256 (≈ 256 µM)	4 (≈ 4 µM)	8 (≈ 8 µM)	16 (≈ 16 µM)	4 (≈ 4 µM)	128	16	256	32	64	64	64
CCCCCCCCCCCCCCCC(=O)N[C@H]1CSSC[C@@H](C(N)=O)NC(=O)[C@H](CCCCN)NC(=O)[C@H](CCCCN)NC(=O)[C@H](CCCNC(=N)N)NC(=O)[C@H](CCCCN)NC1=O [C4, C16-CKRKKC-NH2] (Palmitoyl-CKRKKC-NH2; disulfide 1-6)	32 (≈ 32 µM)	1 (≈ 1 µM)	256 (≈ 256 µM)	2 (≈ 2 µM)	4 (≈ 4 µM)	2 (≈ 2 µM)	8 (≈ 8 µM)	64	16	>256	32	64	32	32

Continued, in another order:

MIC E. coli [1] [µg/mL]	MIC C. lipolytica [2] [µg/mL]	MIC P. aeruginosa [3] [µg/mL]	MIC C. tropicalis [4] [µg/mL]	MIC C. glabrata [5] [µg/mL]	MIC C. albicans [6] [µg/mL]	MIC S. epidermidis [7] [µg/mL]	Compound	MBEC E. coli [8] [µg/mL]	MBEC C. lipolytica [9] [µg/mL]	MBEC P. aeruginosa [10] [µg/mL]	MBEC C. tropicalis [11] [µg/mL]	MBEC C. glabrata [12] [µg/mL]	MBEC C. albicans [13] [µg/mL]	MBEC S. epidermidis [14] [µg/mL]
16 (≈ 25 µM)	16 (≈ 25 µM)	64 (≈ 100 µM)	8 (≈ 12.5 µM)	32 (≈ 50 µM)	32 (≈ 50 µM)	8 (≈ 12.5 µM)	CCCCCCCCCCCCCCCC(=O)N[C@@H](CCCCN)C(=O)N[C@@H](CCCCN)C(=O)N[C@@H](CCCCN)C(N)=O [L1, C16-KKK-NH2]	64	64	128	128	256	256	32
8 (≈ 10 µM)	8 (≈ 10 µM)	32 (≈ 40.2 µM)	8 (≈ 10 µM)	64 (≈ 80.4 µM)	8 (≈ 10 µM)	8 (≈ 10 µM)	CCCCCCCCCCCCCCCC(=O)N[C@@H](CCCNC(=N)N)C(=O)N[C@@H](CCCCN)C(=O)N[C@@H](CCCCN)C(=O)N[C@@H](CCCCN)C(N)=O [L3, C16-RKKK-NH2] (Palmitoyl-RKKK-NH2)	128	32	256	32	128	128	32
